Source: patent US10967078B2, “Radiolabelled mGluR2 PET ligands” (Janssen Pharmaceutica NV, priority 2014, dated 2021)

Experiments:
mGlu3 = mGlu3 (Homo sapiens, UniProt Q14832); experiment: Selectivity for mGluR2 versus mGluR3; assay type: biochemical
mGlu5 = mGlu5 (Homo sapiens, UniProt P41594); experiment: Selectivity for mGluR2 versus mGluR5; assay type: biochemical
mGlu8 = mGlu8 (Homo sapiens, UniProt O00222); experiment: Selectivity for mGluR2 versus mGluR8; assay type: biochemical
mGlu4 = mGlu4 (Homo sapiens, UniProt Q14833); experiment: Selectivity for mGluR2 versus mGluR4; assay type: biochemical
mGlu7 = mGlu7 (Homo sapiens, UniProt Q14831); experiment: Selectivity for mGluR2 versus mGluR7; assay type: biochemical
mGlu1 = mGlu1 (Homo sapiens, UniProt Q13255); experiment: Selectivity for mGluR2 versus mGluR1; assay type: biochemical
human mGlu2 receptor = target: T1, human mGlu2 receptor (Homo sapiens, UniProt Q14416); experiment: [35S]GTPγS binding assay, membranes from CHO cells transfected with the human mGlu2 receptor (NAM activity); assay type: biochemical
T1 construct: expressed in transfected cells; host or cells: CHO cells
Description: The [^35S]GTPγS binding assay is a functional membrane-based assay used to study G-protein coupled receptor (GPCR) function whereby incorporation of a non-hydrolysable form of GTP, [^35S]GTPγS (guanosine 5′-triphosphate, labelled with […] ^35S), is measured. The G-protein a subunit catalyzes the exchange of guanosine 5′-diphosphate (GDP) by guanosine triphosphate (GTP) and on activation of the GPCR by an agonist, [^35S]GTPγS, becomes incorporated and cannot be cleaved to continue the exchange cycle (Harper (1998) Current Protocols in Pharmacology 2.6.1-10, John Wiley & Sons, Inc.). […]
CHO-cells were cultured to pre-confluence and stimulated with 5 mM butyrate for 24 h. […] Protein concentration was determined by the Bradford method (Bio-Rad, USA) with bovine serum albumin as standard.
Measurement of mGluR2 negative allosteric modulatory activity of test compounds was performed as follows. […] Membrane-bound radioactivity was counted in a Topcount.
The concentration-response curves of representative compounds of the present invention were generated using the Lexis software interface (developed at J&J). Data were calculated as % of the control glutamate response, defined as the response that is generated upon addition of an EC80-equivalent concentration of glutamate. […] The concentration producing half-maximal inhibition was calculated as the IC50. […]

Chain of mGlu3 (Q14832 23-879): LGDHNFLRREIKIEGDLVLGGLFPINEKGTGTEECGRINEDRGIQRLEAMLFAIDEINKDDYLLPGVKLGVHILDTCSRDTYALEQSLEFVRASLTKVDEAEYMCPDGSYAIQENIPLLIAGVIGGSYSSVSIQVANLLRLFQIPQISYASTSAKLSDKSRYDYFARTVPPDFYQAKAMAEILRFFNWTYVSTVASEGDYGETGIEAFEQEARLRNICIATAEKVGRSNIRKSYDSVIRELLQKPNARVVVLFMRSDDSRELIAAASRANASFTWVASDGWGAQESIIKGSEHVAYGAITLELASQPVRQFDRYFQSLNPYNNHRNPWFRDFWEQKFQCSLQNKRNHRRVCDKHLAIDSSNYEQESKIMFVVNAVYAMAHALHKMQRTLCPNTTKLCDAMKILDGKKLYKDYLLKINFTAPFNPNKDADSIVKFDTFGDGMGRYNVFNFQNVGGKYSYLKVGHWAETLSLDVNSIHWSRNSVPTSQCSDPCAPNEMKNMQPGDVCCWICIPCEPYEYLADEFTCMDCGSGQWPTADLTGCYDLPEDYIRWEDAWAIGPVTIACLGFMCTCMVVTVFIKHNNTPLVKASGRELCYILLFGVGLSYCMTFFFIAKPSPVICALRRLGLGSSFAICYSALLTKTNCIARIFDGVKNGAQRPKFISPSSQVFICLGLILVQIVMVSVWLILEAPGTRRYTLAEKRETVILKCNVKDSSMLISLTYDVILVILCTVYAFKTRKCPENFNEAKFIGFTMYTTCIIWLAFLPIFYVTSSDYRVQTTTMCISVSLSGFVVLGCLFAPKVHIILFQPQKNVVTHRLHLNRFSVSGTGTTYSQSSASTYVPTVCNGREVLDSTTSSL
Chain of mGlu5 (P41594 21-1212): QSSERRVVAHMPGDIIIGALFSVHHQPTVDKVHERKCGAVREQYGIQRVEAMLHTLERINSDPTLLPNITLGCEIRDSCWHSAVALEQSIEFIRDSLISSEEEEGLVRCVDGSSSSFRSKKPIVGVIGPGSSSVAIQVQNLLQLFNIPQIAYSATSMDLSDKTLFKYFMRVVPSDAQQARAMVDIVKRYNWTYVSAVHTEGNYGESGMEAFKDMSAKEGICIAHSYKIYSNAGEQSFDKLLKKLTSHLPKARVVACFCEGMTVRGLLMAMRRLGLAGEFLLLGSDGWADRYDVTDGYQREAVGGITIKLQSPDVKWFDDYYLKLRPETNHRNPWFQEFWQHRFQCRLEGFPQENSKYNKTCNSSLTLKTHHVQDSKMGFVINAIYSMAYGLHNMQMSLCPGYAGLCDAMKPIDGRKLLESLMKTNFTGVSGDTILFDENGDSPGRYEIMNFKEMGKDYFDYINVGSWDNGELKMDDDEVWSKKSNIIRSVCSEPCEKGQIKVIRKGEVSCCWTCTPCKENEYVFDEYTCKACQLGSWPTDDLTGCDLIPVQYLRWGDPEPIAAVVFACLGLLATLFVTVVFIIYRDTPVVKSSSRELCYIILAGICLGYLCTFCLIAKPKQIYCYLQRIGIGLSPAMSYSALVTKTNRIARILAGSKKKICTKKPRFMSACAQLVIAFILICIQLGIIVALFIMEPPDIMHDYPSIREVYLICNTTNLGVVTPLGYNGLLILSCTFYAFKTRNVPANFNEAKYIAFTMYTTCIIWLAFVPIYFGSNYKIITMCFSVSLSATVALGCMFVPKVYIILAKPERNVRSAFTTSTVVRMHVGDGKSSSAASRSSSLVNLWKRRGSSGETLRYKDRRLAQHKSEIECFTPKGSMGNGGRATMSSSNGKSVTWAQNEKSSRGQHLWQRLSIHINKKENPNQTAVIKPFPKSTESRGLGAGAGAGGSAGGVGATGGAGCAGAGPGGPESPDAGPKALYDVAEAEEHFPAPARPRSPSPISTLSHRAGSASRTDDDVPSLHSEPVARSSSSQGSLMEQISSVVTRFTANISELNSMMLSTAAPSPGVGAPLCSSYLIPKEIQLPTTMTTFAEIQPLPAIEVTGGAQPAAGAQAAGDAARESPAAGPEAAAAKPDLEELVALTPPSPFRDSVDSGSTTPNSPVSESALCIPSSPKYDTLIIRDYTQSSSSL
Chain of mGlu4 (Q14833 33-912): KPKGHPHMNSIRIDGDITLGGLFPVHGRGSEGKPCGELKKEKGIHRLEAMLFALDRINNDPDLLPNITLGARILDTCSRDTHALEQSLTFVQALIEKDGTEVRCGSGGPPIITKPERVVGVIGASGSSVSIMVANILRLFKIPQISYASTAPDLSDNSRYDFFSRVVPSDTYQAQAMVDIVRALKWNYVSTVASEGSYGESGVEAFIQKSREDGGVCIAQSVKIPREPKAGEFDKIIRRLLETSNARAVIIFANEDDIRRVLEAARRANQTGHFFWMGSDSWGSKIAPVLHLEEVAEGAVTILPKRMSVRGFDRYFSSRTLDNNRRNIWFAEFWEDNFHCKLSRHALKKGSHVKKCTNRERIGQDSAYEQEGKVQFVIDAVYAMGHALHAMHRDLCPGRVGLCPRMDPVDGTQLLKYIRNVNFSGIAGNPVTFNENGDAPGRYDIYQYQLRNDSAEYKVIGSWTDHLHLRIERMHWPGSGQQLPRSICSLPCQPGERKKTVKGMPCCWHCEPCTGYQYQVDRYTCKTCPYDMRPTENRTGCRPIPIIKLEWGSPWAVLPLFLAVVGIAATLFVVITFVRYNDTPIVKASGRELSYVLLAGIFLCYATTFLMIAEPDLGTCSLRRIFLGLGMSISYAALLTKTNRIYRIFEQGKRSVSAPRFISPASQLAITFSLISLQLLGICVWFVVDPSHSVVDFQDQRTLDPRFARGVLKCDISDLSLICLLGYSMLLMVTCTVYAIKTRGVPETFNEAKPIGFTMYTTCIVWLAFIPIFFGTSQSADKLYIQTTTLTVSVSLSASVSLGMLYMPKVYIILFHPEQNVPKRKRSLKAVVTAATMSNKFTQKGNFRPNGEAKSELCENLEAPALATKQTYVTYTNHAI
Chain of mGlu1 (Q13255 19-1194): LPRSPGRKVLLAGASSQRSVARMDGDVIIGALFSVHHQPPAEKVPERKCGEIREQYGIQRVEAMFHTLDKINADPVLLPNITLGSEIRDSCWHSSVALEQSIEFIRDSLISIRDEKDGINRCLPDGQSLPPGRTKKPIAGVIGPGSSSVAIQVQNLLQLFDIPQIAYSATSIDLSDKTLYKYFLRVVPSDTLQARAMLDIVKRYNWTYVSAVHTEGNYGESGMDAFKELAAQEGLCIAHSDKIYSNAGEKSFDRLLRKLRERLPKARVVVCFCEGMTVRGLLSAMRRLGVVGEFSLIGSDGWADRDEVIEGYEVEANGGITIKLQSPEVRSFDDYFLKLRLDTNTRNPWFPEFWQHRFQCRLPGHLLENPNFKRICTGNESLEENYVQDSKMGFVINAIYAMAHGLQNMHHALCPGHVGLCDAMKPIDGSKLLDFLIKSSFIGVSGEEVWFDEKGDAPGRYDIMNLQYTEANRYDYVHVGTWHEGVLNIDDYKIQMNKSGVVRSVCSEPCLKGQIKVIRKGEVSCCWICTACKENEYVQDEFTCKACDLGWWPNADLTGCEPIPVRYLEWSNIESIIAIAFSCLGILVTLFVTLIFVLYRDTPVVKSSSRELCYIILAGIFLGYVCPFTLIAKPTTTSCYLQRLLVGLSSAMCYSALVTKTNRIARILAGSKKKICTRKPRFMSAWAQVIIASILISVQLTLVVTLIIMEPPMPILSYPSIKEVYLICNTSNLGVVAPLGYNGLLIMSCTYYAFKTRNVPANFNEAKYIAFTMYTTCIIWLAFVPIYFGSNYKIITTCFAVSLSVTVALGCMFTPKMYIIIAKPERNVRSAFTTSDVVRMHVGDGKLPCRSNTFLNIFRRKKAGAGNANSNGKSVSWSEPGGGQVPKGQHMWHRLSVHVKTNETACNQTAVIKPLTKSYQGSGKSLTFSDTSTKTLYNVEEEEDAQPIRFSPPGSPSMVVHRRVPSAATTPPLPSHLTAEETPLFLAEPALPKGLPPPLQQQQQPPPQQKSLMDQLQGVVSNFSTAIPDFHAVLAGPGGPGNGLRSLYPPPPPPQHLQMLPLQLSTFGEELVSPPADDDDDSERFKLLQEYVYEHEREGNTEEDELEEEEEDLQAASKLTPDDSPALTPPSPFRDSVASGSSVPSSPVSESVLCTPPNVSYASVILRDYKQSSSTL
Chain of mGlu7 (Q14831 35-915): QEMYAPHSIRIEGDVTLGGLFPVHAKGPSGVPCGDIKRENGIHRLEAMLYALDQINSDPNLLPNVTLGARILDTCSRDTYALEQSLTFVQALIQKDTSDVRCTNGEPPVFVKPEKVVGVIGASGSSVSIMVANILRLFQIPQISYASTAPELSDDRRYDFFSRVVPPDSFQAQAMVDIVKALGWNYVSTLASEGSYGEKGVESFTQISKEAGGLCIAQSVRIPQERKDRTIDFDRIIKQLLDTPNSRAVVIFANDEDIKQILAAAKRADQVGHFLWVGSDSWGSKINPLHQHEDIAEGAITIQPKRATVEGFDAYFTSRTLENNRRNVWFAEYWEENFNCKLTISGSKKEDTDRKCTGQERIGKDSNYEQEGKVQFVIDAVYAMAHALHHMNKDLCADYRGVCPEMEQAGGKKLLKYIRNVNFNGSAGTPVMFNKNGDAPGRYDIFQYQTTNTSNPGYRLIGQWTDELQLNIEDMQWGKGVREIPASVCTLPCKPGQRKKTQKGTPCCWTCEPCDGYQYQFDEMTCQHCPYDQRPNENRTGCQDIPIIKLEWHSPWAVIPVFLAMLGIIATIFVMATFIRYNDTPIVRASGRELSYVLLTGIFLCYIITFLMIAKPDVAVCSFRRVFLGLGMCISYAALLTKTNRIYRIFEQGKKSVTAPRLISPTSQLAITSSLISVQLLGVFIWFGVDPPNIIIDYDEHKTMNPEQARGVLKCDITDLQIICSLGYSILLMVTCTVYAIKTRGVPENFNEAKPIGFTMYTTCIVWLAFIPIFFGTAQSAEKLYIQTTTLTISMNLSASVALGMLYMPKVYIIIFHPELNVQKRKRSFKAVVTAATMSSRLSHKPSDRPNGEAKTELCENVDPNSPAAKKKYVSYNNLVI

Selectivity over mGlu3 (mGlu3)	Selectivity over mGlu5 (mGlu5)	Selectivity over mGlu8 (mGlu8)	melting point	Selectivity over mGlu4 (mGlu4)	Selectivity over mGlu7 (mGlu7)	Selectivity over mGlu1 (mGlu1)	IC50 (human mGlu2 receptor; glutamate 60 μM (~EC80), read-out: GTPγS - hmGluR2 anGT pIC50 (converted))	Emax (human mGlu2 receptor; maximal % inhibition relative to the control glutamate response, read-out: GTPγS - hmGluR2 anGT Emax)	SMILES
16.2	1819.7	1819.7	170.3 °C	9120.1	1819.7	1819.7	–	–	C[C@H]1CN(c2ccc(Cl)c(Cl)c2)C(=O)c2c(-c3ccnc(F)c3)cnn21 [Co. No. 3, (7S)-5-(3,4-Dichlorophenyl)-3-(2-fluoro-4-pyridyl)-7-methyl-6,7-dihydropyrazolo[1,5-a]pyrazin-4-one]
25.7	1122.0	1122.0	–	5623.4	1122.0	1122.0	–	–	Cc1cc(-c2cnn3c2C(=O)N(c2ccc(C(F)(F)F)cc2)C[C@@H]3C)ccn1 [Co. No. 1, (7S)-7-Methyl-3-(2-methylpyridin-4-yl)-5-[4-(trifluoromethyl)phenyl]-6,7-dihydropyrazolo[1,5-a]pyrazin-4(5H)-one]
77.6	–	–	–	–	–	–	3.02 nM	106%	CNc1cc(-c2cnn3c2C(=O)N(c2ccc(S(F)(F)(F)(F)F)cc2)C[C@@H]3C)ccn1 [Co. No. 4, (7S)-7-Methyl-3-[2-(methylamino)-4-pyridyl]-5-[4-(pentafluoro-λ^6-sulfanyl)phenyl]-6,7-dihydropyrazolo[1,5-a]pyrazin-4-one]
